Where two headings read alike, the source gives them in different places.
Columns and labels:
Assay type in all cases: biochemical
human MAGL (hMAGL) = human MAGL (hMAGL) (Homo sapiens (Human), UniProt Q99685); test: MAGL enzyme inhibition assay (4-nitrophenylacetate); settings: for IC50: Table II, average of at least two experiments, read-out: IC50 (μM) ± SE (hMAGL); for decrease in inhibitory activity against MAGL: relative to disulfiram / unsubstituted analog
Experimental: The plate was mixed for 30 s and incubated at room temperature for 30 min.

ALDH2 = ALDH2 (Homo sapiens (Human), UniProt P05091); test: ALDH assay (diaphorase/resazurin), ALDH2 inhibition
Source text: (§1) ALDH catalyzes the oxidation of acetaldehyde to acetic acid while reducing NAD+ to NADH. The formation of NADH is fluorescently detected using diaphorase/resazurin system. Diaphorase utilizes NADH formed from ALDH reaction to produce the fluorescent molecule resorufin from resazurin. See Davis, M. I.; Shen, M.; Simeonov, A.; Hall, M. D., Diaphorase Coupling Protocols for Red-Shifting Dehydrogenase Assays.
(§2) The reagent ALDH1a1 is from R&D Systems (Minneapolis, MN). ALDH2 is from Prospect Bio (East Brunswick, NJ). Acetaldehyde is from Cayman Chemicals (Ann Arbor, MI). NAD^+, and Resazurin sodium salt are from Sigma (St. Louis, MO). Diaphorase is from Reaction Biology (Malvern PA). Zaba micro spin columns are from ThermoFisher scientific (Waltham, MA). […] Desalted samples from each enzyme were pooled together and placed in ice until use. Reaction buffer (50 mM sodium pyrophosphate buffer at pH 8.8, 0.01% Brij35) degassed using vacuum for 10 mins until no visible air bubbles were seen.
(§3) 5 μl of reaction buffer was delivered to ‘no enzyme’ background control wells. Test compounds were prepared in 100% DMSO by serial dilution in 100× of assay concentration. After adding the test compounds, reaction plate was centrifuged briefly in 1200 rpm, then incubated for 20 min at room temperature, to pre-incubate enzyme and compounds. […] Reaction plate was briefly centrifuged and sealed with a plastic film to limit evaporation. After incubation at room temperature for 60 min, 10 μl of detection reagent (15 μg/ml diaphorase, 30 μM resazurin prepared in the degassed reaction buffer) was added. Reaction plate was briefly centrifuged and incubated for 10 minutes at room temperature in the dark.

human FAAH (hFAAH) = human FAAH (hFAAH) (Homo sapiens (Human), UniProt O00519); test: FAAH enzyme inhibition assay (Cayman kit, AMC-arachidonoyl amide); settings: for IC50: Table II, average of at least two experiments, read-out: IC50 (μM) ± SE (hFAAH)
Experimental: FAAH inhibition assay was performed using Fatty Acid Amide Hydrolase Inhibitor Screening Assay Kit (Item #10005196), Cayman (1180 E Ellsworth Rd Ann Arbor, MI, USA). […] Manufacturer's protocol was followed to perform the assay. The assay buffer (125 mM Tri-HCl with 1 mM EDTA, pH 9.0) was used to dilute the FAAH human recombinant enzyme. AMC-Arachidonoyl amide, at a concentration of 400 μM was then used as the FAAH substrate. Samples were mixed for 30 s and incubated at 37° C. for 30 min. The fluorescent by-product AMC (7-amino-4-methylcoumarin) released by the FAAH enzyme was detected and quantified at an excitation wavelength of 355 nm and emission wavelength of 460 nm.

ALDH1a1 = ALDH1a1 (Homo sapiens (Human), UniProt P00352); test: ALDH assay (diaphorase/resazurin), ALDH1a1 inhibition
Source text: as §1, §2, §3

[1] = Table IB, mean of at least two independent experiments, read-out: IC50 (μM) ± SE (ALDH2)
[2] = Table IA, mean of at least two independent experiments, read-out: IC50 (μM) ± SE (ALDH1a1)
[3] = Table III, read-out: Aldh1a1 (IC50, μM) ± SE

Sequence of ALDH2 (P05091 18-517): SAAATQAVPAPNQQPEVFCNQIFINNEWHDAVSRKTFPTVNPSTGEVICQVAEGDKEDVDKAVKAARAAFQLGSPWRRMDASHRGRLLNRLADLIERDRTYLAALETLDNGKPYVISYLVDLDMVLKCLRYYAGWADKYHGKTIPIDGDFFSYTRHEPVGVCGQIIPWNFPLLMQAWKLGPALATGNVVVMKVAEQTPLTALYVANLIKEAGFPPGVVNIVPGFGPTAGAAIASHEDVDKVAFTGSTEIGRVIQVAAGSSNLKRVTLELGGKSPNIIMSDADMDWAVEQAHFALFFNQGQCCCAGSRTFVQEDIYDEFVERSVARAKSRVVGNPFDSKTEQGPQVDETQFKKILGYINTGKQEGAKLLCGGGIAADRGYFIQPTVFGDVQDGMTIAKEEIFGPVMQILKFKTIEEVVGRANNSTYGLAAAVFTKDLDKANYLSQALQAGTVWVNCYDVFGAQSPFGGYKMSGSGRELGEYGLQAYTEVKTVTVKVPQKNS
Sequence of human FAAH (hFAAH) (O00519 whole entry): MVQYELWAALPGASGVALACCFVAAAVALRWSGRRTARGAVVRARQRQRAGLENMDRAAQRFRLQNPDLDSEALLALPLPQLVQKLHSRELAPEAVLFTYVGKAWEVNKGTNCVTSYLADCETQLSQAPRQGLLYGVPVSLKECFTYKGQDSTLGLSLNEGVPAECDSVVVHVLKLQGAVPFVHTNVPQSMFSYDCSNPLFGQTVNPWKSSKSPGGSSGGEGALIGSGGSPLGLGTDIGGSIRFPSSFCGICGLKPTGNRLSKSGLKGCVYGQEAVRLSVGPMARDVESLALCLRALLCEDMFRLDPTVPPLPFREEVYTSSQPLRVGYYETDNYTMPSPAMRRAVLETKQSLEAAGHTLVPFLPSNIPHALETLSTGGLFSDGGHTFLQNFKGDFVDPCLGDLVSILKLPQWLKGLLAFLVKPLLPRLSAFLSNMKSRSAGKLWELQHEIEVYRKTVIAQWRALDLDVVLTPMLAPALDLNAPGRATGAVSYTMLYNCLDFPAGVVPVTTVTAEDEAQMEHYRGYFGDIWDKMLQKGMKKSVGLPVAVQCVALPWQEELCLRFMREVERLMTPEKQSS
Sequence of human MAGL (hMAGL) (Q99685 whole entry): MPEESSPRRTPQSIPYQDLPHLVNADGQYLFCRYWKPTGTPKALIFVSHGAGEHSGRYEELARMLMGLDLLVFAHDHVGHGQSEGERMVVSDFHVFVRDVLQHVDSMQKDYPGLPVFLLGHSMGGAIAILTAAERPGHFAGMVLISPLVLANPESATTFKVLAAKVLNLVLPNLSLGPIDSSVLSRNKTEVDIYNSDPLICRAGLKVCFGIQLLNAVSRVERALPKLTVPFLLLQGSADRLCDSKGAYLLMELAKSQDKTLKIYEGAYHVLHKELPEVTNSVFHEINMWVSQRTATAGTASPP
Sequence of ALDH1a1 (P00352 whole entry): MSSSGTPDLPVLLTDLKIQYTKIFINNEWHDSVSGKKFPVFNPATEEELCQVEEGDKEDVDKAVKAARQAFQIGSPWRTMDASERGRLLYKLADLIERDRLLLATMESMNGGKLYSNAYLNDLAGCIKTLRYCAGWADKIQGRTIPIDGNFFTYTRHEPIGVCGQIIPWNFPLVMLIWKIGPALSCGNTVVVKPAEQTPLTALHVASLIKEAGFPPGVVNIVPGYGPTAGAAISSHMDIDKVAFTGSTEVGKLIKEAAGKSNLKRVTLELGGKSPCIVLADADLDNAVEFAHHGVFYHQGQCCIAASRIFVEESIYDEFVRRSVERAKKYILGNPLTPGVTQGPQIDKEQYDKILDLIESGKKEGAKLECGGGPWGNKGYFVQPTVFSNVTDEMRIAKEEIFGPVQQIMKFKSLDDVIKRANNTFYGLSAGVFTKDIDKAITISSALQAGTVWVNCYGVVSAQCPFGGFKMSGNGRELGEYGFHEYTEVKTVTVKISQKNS

In the case of CCN(CCC(=O)O)C(=S)SSC(=S)N(CC)CCC(=O)O [Compound I-2e, bis(N-carboxylethylethylthiocarbamoyl)disulfide], the IC50 (human MAGL (hMAGL)) is reported as 0.87 ± 0.21 µM, the IC50 (ALDH2; [1]) is reported as 0.85 ± 0.55 µM and the IC50 (human FAAH (hFAAH)) is reported as 12.8 ± 1.57 µM. The IC50 (ALDH1a1; [2]) was 0.15 ± 0.14 µM.

With “bis(N-4-hydroxybenzylethylthlocarbamoyl)disulfide [Compound I-2c]” the IC50 (human MAGL (hMAGL)) was 3.71 ± 1.28 µM, the IC50 (ALDH2; [1]) was 10.9 ± 0.61 µM and the IC50 (human FAAH (hFAAH)) was 38.2 ± 7.96 µM. For the same molecule, the IC50 (ALDH1a1; [2]) was 0.21 ± 0.04 µM and the “catalytic activity of inhibited ALDH1a1 after addition of dithiothreitol” value (ALDH1a1; addition of dithiothreitol) was “completely restored”.

CCN(Cc1ccc(C(F)(F)F)cc1)C(=S)SSC(=S)N(CC)Cc1ccc(C(F)(F)F)cc1 [III-1n, bis(N-4-trifluoromethylbenzylethylthiocarbamoyl)disulphide] was tested, and the “Aldh2 (IC50, μM) ± SE” value (ALDH2; Table III) was “No inhibition” and the “Aldh1a1 (IC50, μM) ± SE” value (ALDH1a1; Table III) was “No inhibititon”.

CCOC(=O)CCN(CC)C(=S)SSC(=S)N(CC)CCC(=O)OCC [II-2g, bis(N-ethoxycarbonylethylethylthiocarbamoyl)disulphide] was tested, and the IC50 (human MAGL (hMAGL)) was 3.53 ± 1.32 µM and the IC50 (human FAAH (hFAAH)) was 10.1 ± 0.68 µM.

In the case of CCOCCNC(=S)SSC(=S)NCCOCC [Compound I-2m, reference compound], the IC50 (ALDH1a1; [2]) is reported as 0.04 ± 0.03 µM.

NCCS [Compound 3, Cysteamine, reference compound] was tested, and the “ALDH2 inhibitory activity (in words)” value (ALDH2) was “none of them showed any activity” and the “activity against ALDH1a1 (in words)” value (ALDH1a1) was “none of them showed any activity”.

CCN(CCO)C(=S)SSC(=S)N(CC)CCO [Compound I-2f, bis(N-hydroxyethylethylthiocarbamoyl)disulfide] gave an IC50 (human MAGL (hMAGL)) of 0.72 ± 0.2 µM, an IC50 (ALDH2; [1]) of 25.7 ± 12.3 µM and an IC50 (human FAAH (hFAAH)) of 25.4 ± 3.26 µM. It also gave an IC50 (ALDH1a1; [2]) of 2.54 ± 1.15 µM.

In the case of “N-Acetyl-L-Cysteamine [Compound 5, reference compound]”, the “ALDH2 inhibitory activity (in words)” value (ALDH2) is reported as “none of them showed any activity” and the “activity against ALDH1a1 (in words)” value (ALDH1a1) is reported as “none of them showed any activity”.

For CC(C)N(C(=S)SSC(=S)N(C(C)C)C(C)C)C(C)C [Compound I-2h, reference compound], the IC50 (human MAGL (hMAGL)) was 1.89 ± 0.37 µM, the IC50 (ALDH2; [1]) was > 100 µM and the IC50 (ALDH1a1; [2]) was 2.85 ± 1.08 µM.

With CN(C)C(=S)SSC(=S)N(C)C [Compound I-2g, reference compound] the IC50 (ALDH2; [1]) was 0.32 ± 0.04 µM and the IC50 (ALDH1a1; [2]) was 0.02 ± 0.01 µM.

With CCN(Cc1ccncc1)C(=S)SSC(=S)N(CC)Cc1ccncc1 [III-2o, bis(N-(4-pyridylmethyl)ethylthiocarbamoyl) disulphide] the “Aldh2 (IC50, μM) ± SE” value (ALDH2; Table III) was “No inhibition” and the IC50 (ALDH1a1; [3]) was 5.76 ± 4.01 µM.

In the case of CCN(Cc1ccc(OC)cc1)C(=S)SSC(=S)N(CC)Cc1ccc(OC)cc1, the “Aldh2 (IC50, μM) ± SE” value (ALDH2; Table III) is reported as “No inhibition” and the IC50 (ALDH1a1; [3]) is reported as 0.58 ± 0.41 µM.

CCN(Cc1ccc(C(=O)O)cc1)C(=S)SSC(=S)N(CC)Cc1ccc(C(=O)O)cc1 [Compound I-2d] was tested, and the IC50 (human MAGL (hMAGL)) was 22.6 ± 16.8 µM, the “decrease in inhibitory activity against MAGL” value (human MAGL (hMAGL)) was 20 fold and the IC50 (ALDH2; [1]) was 99.36 ± 0.64 µM. For the same molecule, the “FAAH inhibitory activity (in words)” value (human FAAH (hFAAH)) was “devoid of anti-FAAH activity”, the IC50 (ALDH1a1; [2]) was 2.96 ± 1.52 µM and the “decrease in ALDH1a1 inhibitory activity” value (ALDH1a1; relative to I-2a) was “tenfold decrease”.

CCN(Cc1ccsc1)C(=S)SSC(=S)N(CC)Cc1ccsc1 [III-2r, bis(N-(3-thienylmethyl)ethylthiocarbamoyl)disulphide] was tested, and the “Aldh2 (IC50, μM) ± SE” value (ALDH2; Table III) was “No inhibition” and the IC50 (ALDH1a1; [3]) was 0.17 ± 0.1 µM.

CCN(Cc1ccco1)C(=S)SSC(=S)N(CC)Cc1ccco1 [III-2p, bis(N-(2-furylmethyl)ethylthiocarbamoyl)disulphide] gave an IC50 (ALDH2; Table III, read-out: Aldh2 (IC50, μM) ± SE) of 200 ± 129 µM and an IC50 (ALDH1a1; [3]) of 0.39 ± 0.27 µM.

CCN(CC)C(=S)SSC(=S)N(CC)CC [Disulfiram, reference compound] was tested, and the IC50 (human MAGL (hMAGL)) was 0.95 ± 0.26 µM and the IC50 (human FAAH (hFAAH); listed as II-2a) was 36.2 ± 11 µM.

With O=C(Oc1ccc([N+](=O)[O-])cc1)N1CCN(Cc2cccc(Oc3ccccc3)c2)CC1 [JZL-195, reference compound] the IC50 (human FAAH (hFAAH)) was 0.04 ± 0.02 µM.

“bis(N-4-ethoxycarbonylbenzylethylthiocarbamoyl)disulphide [II-2l]” was tested, and the IC50 (human MAGL (hMAGL)) was 5.03 ± 2.35 µM and the “FAAH inhibitory activity (in words)” value (human FAAH (hFAAH)) was “devoid of anti-FAAH activity”.

NCCSSCCN [Compound 4, Cystamine, reference compound] was tested, and the “ALDH2 inhibitory activity (in words)” value (ALDH2) was “none of them showed any activity”, the “activity against ALDH1a1 (in words)” value (ALDH1a1) was “none of them showed any activity” and the IC50 (ALDH1a1; [2]) was > 100 µM.

CC(C)CN(CC(C)C)C(=S)SSC(=S)N(CC(C)C)CC(C)C [Compound I-2j, reference compound] was tested, and the IC50 (human MAGL (hMAGL)) was 13.4 ± 4.79 µM, the “hydrolytic activity of inhibited MAGL upon addition of dithiothreitol” value (human MAGL (hMAGL); dithiothreitol (10 mM)) was “restored” and the “decrease in inhibitory activity against MAGL” value (human MAGL (hMAGL)) was “up to 15 fold”. For the same molecule, the “FAAH inhibitory activity (in words)” value (human FAAH (hFAAH)) was “no inhibition”, the “activity against ALDH1a1 (in words)” value (ALDH1a1) was “complete loss of activity” and the IC50 (ALDH1a1; [2]) was > 100 µM.

For CCN(Cc1cccs1)C(=S)SSC(=S)N(CC)Cc1cccs1 [III-2q, bis(N-(2-thienylmethyl)ethylthiocarbamoyl)disulphide], the “Aldh2 (IC50, μM) ± SE” value (ALDH2; Table III) was “No inhibition” and the IC50 (ALDH1a1; [3]) was 0.39 ± 0.31 µM.

From patent US20250145565A1 (BATTERJEE MEDICAL COLLEGE, priority 2021, published 2025)
